The source of these data is ChEMBL document CHEMBL4627305, “3,3-Difluoro-3,4,5,6-tetrahydropyridin-2-amines: Potent and permeable BACE-1 inhibitors” (Bioorg Med Chem Lett, 2020).

Usually IC50 stands for the point on the concentration scale where inhibition reaches its midpoint. Broadly, the pKa is the pH at which an ionisable group is half protonated. Low values mean a stronger acid or weaker base, high ones a weaker acid or stronger base. In general, efflux ratio refers to a quotient of directional permeabilities that is used to spot active efflux.

For one data set, the species on record is Homo sapiens. Put plainly: Selectivity index, ratio of IC50 for BACE2 (unknown origin) to IC50 for BACE1 (unknown origin).
Data set [1] concerns the target Voltage-gated inwardly rectifying potassium channel KCNH2 (Homo sapiens, UniProt Q12809). Put plainly: Inhibition of human ERG.
The target in data set [2] is T1, Beta-secretase 1 (Homo sapiens, UniProt P56817). The experiment in a line: Inhibition of BACE1 (unknown origin) assessed as reduction in Abeta42 level by cell based assay.
T1 sequence (P56817 whole entry): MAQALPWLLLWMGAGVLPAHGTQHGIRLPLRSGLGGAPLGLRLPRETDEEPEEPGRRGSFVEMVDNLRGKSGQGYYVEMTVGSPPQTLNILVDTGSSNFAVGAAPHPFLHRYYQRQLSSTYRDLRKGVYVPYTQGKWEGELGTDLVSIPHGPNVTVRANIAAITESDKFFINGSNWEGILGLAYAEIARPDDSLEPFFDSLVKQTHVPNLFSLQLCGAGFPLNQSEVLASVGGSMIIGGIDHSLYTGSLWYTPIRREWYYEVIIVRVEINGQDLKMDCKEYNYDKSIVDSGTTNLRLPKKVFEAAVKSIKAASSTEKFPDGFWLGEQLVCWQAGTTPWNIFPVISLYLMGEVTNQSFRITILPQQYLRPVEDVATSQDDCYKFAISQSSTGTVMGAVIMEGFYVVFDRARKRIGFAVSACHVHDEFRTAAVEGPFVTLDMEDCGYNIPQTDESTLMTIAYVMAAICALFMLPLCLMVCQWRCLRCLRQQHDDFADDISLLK
The target of another data set is T2, Beta-secretase 2 (Homo sapiens, UniProt Q9Y5Z0).
T2 sequence (Q9Y5Z0 whole entry): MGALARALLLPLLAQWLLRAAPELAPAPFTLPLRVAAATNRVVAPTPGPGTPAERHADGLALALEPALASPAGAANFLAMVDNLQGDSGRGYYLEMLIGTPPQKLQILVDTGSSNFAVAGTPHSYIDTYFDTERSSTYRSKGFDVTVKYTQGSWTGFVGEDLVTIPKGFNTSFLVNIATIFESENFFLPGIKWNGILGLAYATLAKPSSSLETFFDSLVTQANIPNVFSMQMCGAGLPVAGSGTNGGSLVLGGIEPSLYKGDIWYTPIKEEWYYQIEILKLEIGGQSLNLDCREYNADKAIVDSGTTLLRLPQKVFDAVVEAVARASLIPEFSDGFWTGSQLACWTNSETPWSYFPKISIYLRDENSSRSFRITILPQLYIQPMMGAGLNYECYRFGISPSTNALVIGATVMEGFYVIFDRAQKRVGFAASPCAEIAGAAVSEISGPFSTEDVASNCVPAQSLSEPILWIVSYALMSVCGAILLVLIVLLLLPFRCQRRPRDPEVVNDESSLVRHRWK
Put plainly: Inhibition of BACE2 (unknown origin).

A short description of data set [3]: Metabolic stability in human liver microsomes assessed as intrinsic clearance. The data set is classed as ADME, Microsome. The conditions noted are these: read-out: CLH. Background: Microsomes from liver hold many membrane-bound enzymes, among them those of drug oxidation.
A short description of data set [4]: Dissociation constant, pKa of the compound. The data set is classed as physicochemical.
In data set [5] the target is T1, Beta-secretase 1. Put plainly: Inhibition of BACE1 (unknown origin).
The target of a further data set is Cytochrome P450 2D6 (Homo sapiens, UniProt P10635). The experiment in a line: Inhibition of CYP2D6 (unknown origin). It counts as ADME.
Sequence of Cytochrome P450 2D6 (P10635 whole entry): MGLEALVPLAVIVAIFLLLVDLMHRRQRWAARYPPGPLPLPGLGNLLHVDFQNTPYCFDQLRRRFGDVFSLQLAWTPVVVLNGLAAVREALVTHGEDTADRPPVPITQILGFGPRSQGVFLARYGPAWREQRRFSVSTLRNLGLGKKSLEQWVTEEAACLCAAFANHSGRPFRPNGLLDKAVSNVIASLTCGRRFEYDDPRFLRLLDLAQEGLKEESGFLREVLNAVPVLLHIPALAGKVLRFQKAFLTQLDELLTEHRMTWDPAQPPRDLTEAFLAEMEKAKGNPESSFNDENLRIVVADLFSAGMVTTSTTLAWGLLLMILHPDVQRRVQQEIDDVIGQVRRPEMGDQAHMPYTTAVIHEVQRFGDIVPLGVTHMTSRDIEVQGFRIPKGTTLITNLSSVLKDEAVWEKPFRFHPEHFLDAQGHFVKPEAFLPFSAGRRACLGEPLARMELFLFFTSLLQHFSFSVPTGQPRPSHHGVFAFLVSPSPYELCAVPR
The nature of data set [6]: Metabolic stability in dog liver microsomes assessed as intrinsic clearance. The data set is classed as ADME, Canis lupus familiaris, Microsome. The note with it: read-out: CLH.
A short description of data set [7]: Efflux ratio of apparent permeability across basolateral to apical over apical to basolateral side in MDCK cells. It counts as ADME, cell-based, Canis lupus familiaris. The note with it: dog.

Molecules are shown by their SMILES.

Sequence of Voltage-gated inwardly rectifying potassium channel KCNH2 (Q12809 whole entry): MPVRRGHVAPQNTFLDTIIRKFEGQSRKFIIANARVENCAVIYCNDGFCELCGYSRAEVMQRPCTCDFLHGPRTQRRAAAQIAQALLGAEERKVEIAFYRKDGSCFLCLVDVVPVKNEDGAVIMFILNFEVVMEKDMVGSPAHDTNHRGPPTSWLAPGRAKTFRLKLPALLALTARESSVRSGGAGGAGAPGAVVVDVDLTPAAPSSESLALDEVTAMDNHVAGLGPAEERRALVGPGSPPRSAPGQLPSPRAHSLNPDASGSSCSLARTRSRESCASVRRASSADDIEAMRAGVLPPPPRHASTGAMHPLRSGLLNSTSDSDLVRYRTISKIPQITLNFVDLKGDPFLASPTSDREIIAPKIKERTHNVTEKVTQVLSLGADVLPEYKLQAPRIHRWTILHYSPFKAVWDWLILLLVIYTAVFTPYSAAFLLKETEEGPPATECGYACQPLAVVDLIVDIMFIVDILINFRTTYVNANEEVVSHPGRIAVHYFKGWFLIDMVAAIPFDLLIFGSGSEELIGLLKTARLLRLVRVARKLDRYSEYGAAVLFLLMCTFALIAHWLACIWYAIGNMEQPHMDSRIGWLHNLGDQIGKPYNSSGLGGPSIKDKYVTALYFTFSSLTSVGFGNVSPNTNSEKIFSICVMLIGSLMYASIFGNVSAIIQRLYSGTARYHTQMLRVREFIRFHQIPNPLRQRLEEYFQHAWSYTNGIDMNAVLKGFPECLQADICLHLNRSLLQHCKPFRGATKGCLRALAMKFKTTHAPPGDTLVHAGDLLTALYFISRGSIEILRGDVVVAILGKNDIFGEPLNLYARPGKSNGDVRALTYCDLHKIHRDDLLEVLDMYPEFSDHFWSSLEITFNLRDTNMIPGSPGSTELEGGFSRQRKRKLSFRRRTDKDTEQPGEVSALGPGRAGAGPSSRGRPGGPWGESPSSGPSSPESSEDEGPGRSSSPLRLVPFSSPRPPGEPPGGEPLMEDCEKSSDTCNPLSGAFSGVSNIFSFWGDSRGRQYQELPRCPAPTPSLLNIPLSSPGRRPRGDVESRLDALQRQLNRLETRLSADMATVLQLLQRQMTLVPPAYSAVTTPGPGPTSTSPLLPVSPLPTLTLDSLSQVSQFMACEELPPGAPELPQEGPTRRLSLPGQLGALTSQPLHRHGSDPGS

On to `C[C@H]1C[C@H]2CC(F)(F)C(N)=N[C@@]2(c2cc(NC(=O)c3cnc(OCF)cn3)ccc2F)CO1`, for which the Ratio IC50 in the data set listed under Homo sapiens was found to be 4.5. The IC50 in data set [1] is > 10000 nM; on Beta-secretase 1 [2], 3.5 nM; against Beta-secretase 2, 6.8 nM; against Beta-secretase 1 [5] it was 1.5 nM; on Cytochrome P450 2D6, > 10000 nM. Further, the microsomal CLint in data set [3] was 119 µL/min/mg; in data set [6], 18.6 µL/min/mg. For the same compound, the pKa in data set [4] worked out at 6.6. For the same compound, the efflux ratio in [7] is 5.

Take `NC1=N[C@](CF)(c2cc(NC(=O)c3cnc(OCF)cn3)ccc2F)CCC1(F)F`: the IC50 was found to be 93.3 nM at Beta-secretase 1 [2], 138 nM at Beta-secretase 2 and 8.9 nM at Beta-secretase 1 [5]. Further, the microsomal CLint in data set [3] and in data set [6] was < 7.7 µL/min/mg throughout. For the same compound, the pKa in data set [4] came to 6.3.

Regarding `NC1=N[C@@]2(c3cc(NC(=O)c4cnc(OCF)cn4)ccc3F)CO[C@@H](CF)C[C@H]2CC1(F)F`, the Ratio IC50 in the data set listed under Homo sapiens was determined as 3.6. The IC50 in [1] is > 10000 nM; at Beta-secretase 1 [2] it was 4.8 nM; against Beta-secretase 2, 8.9 nM; at Beta-secretase 1 [5], 2.5 nM; against Cytochrome P450 2D6, > 10000 nM. The microsomal CLint is 24.9 µL/min/mg in data set [3] and < 7.7 µL/min/mg in [6]. This compound showed a pKa in data set [4] of 6.4. Besides, the efflux ratio in [7] was found to be 12.

With `NC1=N[C@@]2(c3cc(NC(=O)c4cnc(OCF)cn4)ccc3F)COCC[C@H]2CC1(F)F` (racemic), the Ratio IC50 in the data set filed under Homo sapiens is 3. Further, the IC50 was > 10000 nM in data set [1]; 7.1 nM at Beta-secretase 1 [2]; 10.2 nM against Beta-secretase 2; 3.5 nM against Beta-secretase 1 [5]; > 10000 nM against Cytochrome P450 2D6. In addition, the microsomal CLint in [3] worked out at 46.2 µL/min/mg; in data set [6] it was 15.5 µL/min/mg. Moreover, the pKa in data set [4] was found to be 6.6. Also, the efflux ratio in data set [7] stood at 4.7.

Take `NC1=N[C@@]2(c3cc(NC(=O)c4cnc(OCF)cn4)ccc3F)CCOC[C@H]2CC1(F)F` (racemic): in the data set listed under Homo sapiens, the Ratio IC50 is 13.5. For the same compound, the IC50 in data set [1] was > 10000 nM; on Beta-secretase 1 [2], 170 nM; against Beta-secretase 2, 1070 nM; on Beta-secretase 1 [5] it was 79.4 nM; at Cytochrome P450 2D6, > 10000 nM. Further, the microsomal CLint in data set [3] came to 35.3 µL/min/mg; in [6], 11.8 µL/min/mg. The same compound yielded a pKa in data set [4] of 6.7. In addition, the efflux ratio in data set [7] stood at 8.4.

`C[C@@]1(c2cc(NC(=O)c3cnc(OCF)cn3)ccc2F)CCC(F)(F)C(N)=N1`: the Ratio IC50 in the data set listed under Homo sapiens was found to be 11. The IC50 in data set [1] is > 10000 nM; at Beta-secretase 1 [2], 16.2 nM; at Beta-secretase 2 it was 126 nM; against Beta-secretase 1 [5], 11.5 nM; at Cytochrome P450 2D6, 1000 nM. The microsomal CLint is 10.1 µL/min/mg in [3] and 10.2 µL/min/mg in data set [6]. The same compound yielded a pKa in data set [4] of 7.6. Moreover, in data set [7], the efflux ratio worked out at 2.1.
